The values that follow come from patent US20260124214A1, “HETEROCYCLIC COMPOUNDS FOR USE IN THE TREATMENT OF CANCER” (ARTIOS PHARMA LIMITED, priority 2021, published 2026).

Where a name gives a salt, the structure may show the parent alone.

In this assay the target is T1, Human Polθ polymerase domain (aa1820-2590) (Homo sapiens, UniProt O75417).
T1 construct: Human Polθ polymerase domain (aa1820-2590) was expressed in E. Coli; made in house; host or cells: E. coli
T1 sequence (O75417 1820-2590): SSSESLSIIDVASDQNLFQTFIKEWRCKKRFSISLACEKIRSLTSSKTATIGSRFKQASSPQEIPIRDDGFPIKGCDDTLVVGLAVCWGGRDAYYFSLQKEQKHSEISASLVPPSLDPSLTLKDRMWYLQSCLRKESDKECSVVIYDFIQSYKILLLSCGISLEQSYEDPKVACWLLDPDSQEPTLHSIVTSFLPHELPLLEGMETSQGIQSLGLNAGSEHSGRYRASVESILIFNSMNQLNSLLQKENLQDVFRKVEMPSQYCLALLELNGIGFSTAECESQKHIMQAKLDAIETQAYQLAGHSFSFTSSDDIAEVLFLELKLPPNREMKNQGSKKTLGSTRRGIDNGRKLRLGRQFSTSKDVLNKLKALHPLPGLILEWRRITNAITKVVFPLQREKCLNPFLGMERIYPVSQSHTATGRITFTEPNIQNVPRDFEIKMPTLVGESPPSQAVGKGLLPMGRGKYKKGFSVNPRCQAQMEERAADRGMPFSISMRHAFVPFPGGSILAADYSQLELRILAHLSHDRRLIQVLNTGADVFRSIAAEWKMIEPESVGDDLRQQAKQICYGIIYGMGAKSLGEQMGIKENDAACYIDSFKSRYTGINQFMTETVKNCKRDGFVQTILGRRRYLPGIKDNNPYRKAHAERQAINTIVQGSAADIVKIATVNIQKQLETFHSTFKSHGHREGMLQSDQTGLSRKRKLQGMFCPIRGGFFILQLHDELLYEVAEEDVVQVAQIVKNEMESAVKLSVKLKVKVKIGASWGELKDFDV
As to the kind of experiment: Polθ Polymerase Domain WT KI Assay (PicoGreen). The following applies: 100 nM DNA substrate, 0.156 nM Polθ, initial rates vs inhibitor concentration. The class given is biochemical. Summed up: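 E. coli-expressed human Polθ polymerase domain (aa1820-2590) on annealed DNA II Short/Long primer-template (1.2:1), in 25 mM Tris pH 7.5, NaCl, 5% glycerol, 0.01% Triton X-100, 0.1 mg/ml BSA, 1 mM DTT, 1% DMSO. EDTA-quenched timepoints to 180 min, PicoGreen fluorescence. Initial rates vs inhibitor concentration fitted four-parameter for KI.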
As for `Cc1cc(C(F)(F)F)cc(N2C(=O)C[C@@H]3CN(CCCN4CCOCC4)c4c(Cl)cccc4N(C)C(=O)[C@H]32)n1` [Example 136, (3aR,11aS)-6-Chloro-10-methyl-1-(6-methyl-4-(trifluoromethyl)pyridin-2-yl)-5-(3-morpholinopropyl)-1,3a,4,5,10,11a-hexahydro-2H-benzo[b]pyrrolo[2,3-f][1,4]diazocine-2,11(3H)-dione hydrochloride], the Ki was determined as 0.786 nM.

Compound `Cc1cc(C(F)(F)F)cc(N2C(=O)C[C@@H]3CN(CCCN4CCOCC4)c4c(F)cccc4N(C)C(=O)[C@H]32)n1` [Example 137, (3aR,11aS)-6-Fluoro-10-methyl-1-(6-methyl-4-(trifluoromethyl)pyridin-2-yl)-5-(3-morpholinopropyl)-1,3a,4,5,10,11a-hexahydro-2H-benzo[b]pyrrolo[2,3-f][1,4]diazocine-2,11(3H)-dione] had a Ki of 10.1 nM.

As for `Cc1cc(C(F)(F)F)cc(N2C(=O)C[C@@H]3CN(c4cccnc4)c4c(F)cccc4N(C)C(=O)[C@H]32)n1` [Example 138, (3aR,11aS)-6-Fluoro-10-methyl-1-(6-methyl-4-(trifluoromethyl)pyridin-2-yl)-5-(pyridin-3-yl)-1,3a,4,5,10,11a-hexahydro-2H-benzo[b]pyrrolo[2,3-f][1,4]diazocine-2,11(3H)-dione], affinity was put at a Ki of 645 nM.

The compound `Cc1cc(C(F)(F)F)cc(N2C(=O)C[C@@H]3CN(c4ccccc4)c4c(F)cccc4N(C)C(=O)[C@H]32)n1` [Example 139, (3aR,11aS)-6-Fluoro-10-methyl-1-(6-methyl-4-(trifluoromethyl)pyridin-2-yl)-5-phenyl-1,3a,4,5,10,11a-hexahydro-2H-benzo[b]pyrrolo[2,3-f][1,4]diazocine-2,11(3H)-dione] came in with a Ki of 56.8 nM.

`COc1ccnc(N2C[C@H]3CC(=O)N(c4cc(C(F)(F)F)cc(C)n4)[C@@H]3C(=O)N(C)c3cccc(F)c32)c1` [Example 140, (3aR,11aS)-6-Fluoro-5-(4-methoxypyridin-2-yl)-10-methyl-1-(6-methyl-4-(trifluoromethyl)pyridin-2-yl)-1,3a,4,5,10,11a-hexahydro-2H-benzo[b]pyrrolo[2,3-f][1,4]diazocine-2,11(3H)-dione] gave an inhibition constant Ki of 79.6 nM.

On to `COc1cccc(N2C[C@H]3CC(=O)N(c4cc(C(F)(F)F)cc(C)n4)[C@@H]3C(=O)N(C)c3cccc(F)c32)n1` [Example 141, (3aR,11aS)-6-Fluoro-5-(6-methoxypyridin-2-yl)-10-methyl-1-(6-methyl-4-(trifluoromethyl)pyridin-2-yl)-1,3a,4,5,10,11a-hexahydro-2H-benzo[b]pyrrolo[2,3-f][1,4]diazocine-2,11(3H)-dione], for which the Ki came to 86.3 nM.

`COc1cc(N2C[C@H]3CC(=O)N(c4cc(C(F)(F)F)cc(C)n4)[C@@H]3C(=O)N(C)c3cccc(F)c32)ccn1` [Example 142, (3aR,11aS)-6-Fluoro-5-(2-methoxypyridin-4-yl)-10-methyl-1-(6-methyl-4-(trifluoromethyl)pyridin-2-yl)-1,3a,4,5,10,11a-hexahydro-2H-benzo[b]pyrrolo[2,3-f][1,4]diazocine-2,11(3H)-dione] displayed a Ki of 461 nM.

With `Cc1cc(C(F)(F)F)cc(N2C(=O)C[C@@H]3CN(c4ccc5ccn(C)c5n4)c4c(F)cccc4N(C)C(=O)[C@H]32)n1` [Example 143, (3aR,11aS)-6-Fluoro-10-methyl-5-(1-methyl-1H-pyrrolo[2,3-b]pyridin-6-yl)-1-(6-methyl-4-(trifluoromethyl)pyridin-2-yl)-1,3a,4,5,10,11a-hexahydro-2H-benzo[b]pyrrolo[2,3-f][1,4]diazocine-2,11(3H)-dione], the Ki came to 97 nM.

In the case of `Cc1cc(C(F)(F)F)cc(N2C(=O)C[C@@H]3CN(c4ccc5ncn(C)c5c4)c4c(F)cccc4N(C)C(=O)[C@H]32)n1` [Example 144, (3aR,11aS)-6-Fluoro-10-methyl-5-(1-methyl-1H-benzo[d]imidazol-6-yl)-1-(6-methyl-4-(trifluoromethyl)pyridin-2-yl)-1,3a,4,5,10,11a-hexahydro-2H-benzo[b]pyrrolo[2,3-f][1,4]diazocine-2,11(3H)-dione], the affinity corresponds to a Ki of 28.8 nM.
